# Experimental data reported in patent publication US20060018846A1, “Animo substituted hydroxyphenyl benzophenone derivatives” (priority 2002, published 2006).
# How the values were obtained:
# [1] = UV spectrum (absorption maximum and molar extinction); type: physicochemical
# Source text: UV Spectrum (in Dioxan) • Maximum at 359 nm; e=34724
# UV Spectrum (in Dioxan): • Maximum at 360 nm; e=37900
# UV Spectrum (in Dioxan): • Maximum at 359 nm; e=35080
# UV-Spectrum in Dioxan: Max. 351 nm, mol Ext. 65551
# UV Spectrum in Ethanol: Max. 354 nm, mol. Ext. 65296
# [2] = Solubility in Finsolve TN (C 12-15 alkylbenzoate); type: physicochemical
# Source text: It has a good solubility for example in Finsolve TN (C 12-15 alkylbenzoate)>10%.
# The obtained compound is an amorphous, yellow powder Solubility in Finsolve TN>30%
UV spectrum: 2. Maximum (wavelength) ([1]; in Dioxan),UV spectrum: Maximum (wavelength; 1. Maximum where two are given) ([1]; in Dioxan),UV spectrum: e / mol Ext. at the maximum (1. Maximum where two are given) ([1]; in Dioxan),UV spectrum: e at 2. Maximum ([1]; in Dioxan),Solubility in Finsolve TN (C 12-15 alkylbenzoate) [2],UV spectrum: Max. (wavelength) ([1]; in Ethanol),UV spectrum: mol. Ext. ([1]; in Ethanol),Structure (SMILES)
360 nm,336 nm,57318,49032,–,–,–,CCN(CC)c1ccc(C(=O)c2ccccc2C(=O)Nc2ccc(-c3nc4ccc(C)cc4s3)cc2)c(O)c1 [Example 2]
–,358 nm,34848,–,–,–,–,CCN(CC)c1ccc(C(=O)c2ccccc2C(=O)Nc2ccc(C(N)=O)cc2)c(O)c1 [Example 4]
–,351 nm,38565,–,–,–,–,CCN(CC)c1ccc(C(=O)c2ccccc2C(=O)OC2CC(C)CCC2C(C)C)c(O)c1 (centres unmarked) [Example 6]
–,359 nm,34724,–,–,–,–,CCN(CC)c1ccc(C(=O)c2ccccc2C(=O)Nc2ccccc2)c(O)c1 [Example 8]
–,360 nm,37900,–,–,–,–,CCN(CC)c1ccc(C(=O)c2ccccc2C(=O)N2CCOCC2)c(O)c1 [Example 9]
–,359 nm,35080,–,–,–,–,CCN(CC)c1ccc(C(=O)c2ccccc2C(=O)N(CCO)CCO)c(O)c1 [Example 10]
–,351 nm,65551,–,> 10%,–,–,CCN(CC)c1ccc(C(=O)c2ccccc2C(=O)OC/C=C/COC(=O)c2ccccc2C(=O)c2ccc(N(CC)CC)cc2O)c(O)c1 [Example 11]
–,–,–,–,> 30%,354 nm,65296,CCN(CC)c1ccc(C(=O)c2ccccc2C(=O)OCC(C)(C)COC(=O)c2ccccc2C(=O)c2ccc(N(CC)CC)cc2O)c(O)c1 [Example 12]
